Here are results for 19 compounds from patent US20260158009A1 (GENZYME CORPORATION, priority 2023, published 2026).

SMILES strings stand for the structures.

Test [1] relates to U937 cells. In words: Cellular assay in U937 cells: activity of RIPK1 inhibitors on TNFα/zVAD.fmk-induced cell death (necroptosis), CellTiter 96 AQueous (MTS) readout. The settings on record: Homo sapiens, U-937. It is filed as cell-based. The text has this:
Upon TNF-Receptor I ligation, Ser/Thr kinase RIPK1 is recruited to a transient receptor complex 1. Upon modification of RIPK1 which promotes activation of RIPK1, complex IIb can form, that involves recruitment of RIPK3 and MLKL (mixed lineage-kinase domain-like protein) which then translocates from the cytosol to the plasma membrane to execute cell death (Cai, Z. et al, Nat. Cell Biol. (2014) 16:55-65).
Cell death was quantified in 96 well plates by determination of the amount of live cell using a CellTiter 96 AQueous reagent (Promega), a calorimetric method to measure the number of live cells by reducing tetrazolium compound [3-(4,5-dimethylthiazol-2-yl)-5-(3-carboxymethoxyphenyl)-2-(4-sulfophenyl)-2H-tetrazolium, inner salt; MTS] into formazan. Absorbance of formazan was read at 490 nm. The inhibitory activity of the test compound was quantified in a concentration response curve (CRC) experiment.
Compounds were obtained as 10 mM stock solutions and were diluted 1 to 10 volumes with DMSO to yield a 1 mM solution. From this solution 2 μl were diluted with 998 μl growth medium. 100 μl of 2 μM compound solution was further diluted sequentially with a dilution factor of 2.5 by adding 150 μl growth medium. A total of 10 concentrations were tested ranging from 10 μM to 0.26 nM or from 1 μM to 0.07 nM.
U937 cells were cultured in RPMI1640 Glutamax and 10% heat inactivated FBS. 50 μl cell suspension containing 1×10^6 cells/ml supplemented with 50 μM zVAD.fmk (Benzyloxycarbonyl-Val-Ala-Asp (OMe) fluoromethylketone) and 100 ng/ml recombinant human TNF[…] were dispensed in each well of a 96-well plate. 50 μl of compound dilutions (described in Cellular assay in U937 cells) were added and the cell suspension incubated overnight (18 to 24 hrs) at 37° C., 5% CO2 in a humidified atmosphere (95% rH). High (no compound) and low control (no TNF[…], zVAD.fmk) were tested with 7 replicates; all compound concentrations were tested in duplicates on each experimental plate.
CellTiter 96 Aqueous reagent was mixed (100 μl PMS (phenazine methosulfate) solution/2 ml MTS (3-(4,5-[…])-5-(3-carboxymethoxyphenyl)-2-(4-sulfophenyl)-2H-tetrazolium, inner salt) solution) and 20 μl were added per well. After 4 hrs incubation at 37° C. (5% CO2 95% rH) optical density was measured at 490 nm on a microplate reader (Tecan Infinite M1000).
The % inhibition is expressed as percentage of the maximal inhibition value obtained in the absence of TNFα/zVAD.fmc.

Test [2] has as its target T1, hRIPK1 (aa 1-375) fusion protein (Homo sapiens, UniProt Q13546).
T1 construct: hRIPK1 (aa 1-375) fusion protein
T1 sequence (Q13546 1-375): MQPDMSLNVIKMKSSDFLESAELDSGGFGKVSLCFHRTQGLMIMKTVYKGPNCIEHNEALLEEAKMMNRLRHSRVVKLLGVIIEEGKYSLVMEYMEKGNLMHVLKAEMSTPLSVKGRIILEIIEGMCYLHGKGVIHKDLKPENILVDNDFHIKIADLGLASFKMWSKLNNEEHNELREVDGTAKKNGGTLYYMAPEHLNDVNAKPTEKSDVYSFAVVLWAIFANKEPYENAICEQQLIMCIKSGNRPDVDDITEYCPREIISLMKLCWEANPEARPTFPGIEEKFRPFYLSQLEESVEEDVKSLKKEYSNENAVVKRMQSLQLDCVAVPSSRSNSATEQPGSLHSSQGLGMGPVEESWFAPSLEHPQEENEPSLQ
In words: ADP-Glo kinase assay: catalytic activity of RIPK1 (autophosphorylation, conversion of ATP to ADP). It is filed as biochemical. The method, then: The catalytic activity of RIPK1 was measured by monitoring the conversion of Adenosine triphosphate (ATP) to Adenosine diphosphate (ADP) due to autophosphorylation using an ADP-Glo kinase kit (Promega, catalog no. V9104).
In detail, 2 μl recombinantly produced hRIPK1 (aa 1-375) fusion protein (end concentration 3.6 μg/ml) and 2 μl compound (end concentration 33300-1.69 nM; DMSO end concentration 1%) were incubated for 30 minutes at room temperature and then 2 μl ATP (ADP Glo kit, end concentration 50 μM) were added. After another 240 minutes incubation at room temperature, 5 μl Promega ADP-Glo reagent I was added to quench the reaction and deplete unconsumed ATP. After an incubation period of 30 minutes, 10 μl Promega ADP-Glo detection reagent II was added resulting in conversion of ADP to ATP, which generates a light-reaction between luciferase and luciferin. Luminescence was quantified after 30 minutes with a Pherastar FS (BMG LABTECH, Ortenberg).
The adjustment was obtained by nonlinear regression using the Levenberg Marquardt algorithm.
Background: ADP-Glo turns the ADP formed in a reaction into a luminescent signal.

Broadly, the IC50 is the concentration that gives 50% inhibition. Read a low IC50 as greater potency in that assay. Turning to `Cc1cnc([C@@H]2CCON2C(=O)[C@H]2CC[C@H](Cc3cc(C)ncc3F)CC2)cn1` [compound 384, trans-[4-[(5-fluoro-2-methylpyridin-4-yl)methyl]cyclohexyl]-[(3S)-3-(5-methylpyrazin-2-yl)-1,2-oxazolidin-2-yl]methanone], the results for the 50% inhibitory concentration (IC50) in test [1] and in test [2] were 7 nM and 28 nM, respectively.

Regarding `Cc1cc(C[C@H]2CC[C@H](C(=O)N3OCC[C@H]3c3cc(F)cc(F)c3)CC2)ncn1` [compound 313, trans-[(3S)-3-(3,5-difluorophenyl)isoxazolidin-2-yl]-[4-[(6-methylpyrimidin-4-yl)methyl]cyclohexyl]methanone], the IC50 in test [1] worked out at 40 nM; in test [2] it was 42 nM.

With `N#Cc1cc(F)cc([C@@H]2CCON2C(=O)[C@H]2CC[C@H](Cn3ncc4ncc(C#N)cc43)CC2)c1` [compound 27, trans-1-((4-((S)-3-(3-cyano-5-fluorophenyl)isoxazolidine-2-carbonyl)cyclohexyl)methyl)-1H-pyrazolo[4,3-b]pyridine-6-carbonitrile], the IC50 in test [1] is 2 nM; in test [2], 6 nM.

`N#Cc1cc(F)cc([C@@H]2CCON2C(=O)[C@H]2CC[C@H](Cn3ccc4c(F)cc(C#N)cc43)CC2)c1` [compound 46, trans-1-((4-((S)-3-(3-cyano-5-fluorophenyl)isoxazolidine-2-carbonyl)cyclohexyl)methyl)-4-fluoro-1H-indole-6-carbonitrile]: the IC50 in test [1] worked out at 6 nM; in test [2], 13 nM.

As for `N#Cc1cc2c(ccn2C[C@H]2CC[C@H](C(=O)N3OCC[C@H]3c3cc(F)cc(F)c3)CC2)cc1F` [compound 23, trans-1-((4-((S)-3-(3,5-difluorophenyl)isoxazolidine-2-carbonyl)cyclohexyl)methyl)-5-fluoro-1H-indole-6-carbonitrile], the half-maximal inhibitory concentration (IC50) in test [1] is 3 nM; in test [2], 21 nM.

Turning to `Cc1ccc(C[C@H]2CC[C@H](C(=O)N3OCC[C@H]3c3cnccn3)CC2)cc1C(N)=O` [compound 138, trans-2-methyl-5-[[4-[(3S)-3-pyrazin-2-ylisoxazolidine-2-carbonyl]cyclohexyl]methyl]benzamide], the IC50 is 25 nM in test [1] and 18 nM in test [2].

Regarding `N#Cc1cc(F)cc([C@@H]2CCON2C(=O)[C@H]2CC[C@H](Cn3ncc4cc(F)c(C#N)cc43)CC2)c1` [compound 87, trans-1-((4-((S)-3-(3-cyano-5-fluorophenyl)isoxazolidine-2-carbonyl)cyclohexyl)methyl)-5-fluoro-1H-indazole-6-carbonitrile], the concentration for half-maximal inhibition (IC50) in test [1] is 3 nM; in test [2] it was 18 nM.

Regarding `N#Cc1cc(F)cc([C@@H]2CCON2C(=O)[C@H]2CC[C@H](Cc3ccc(F)c(C(N)=O)c3)CC2)c1` [compound 195, trans-5-[[4-[(3S)-3-(3-cyano-5-fluoro-phenyl)isoxazolidine-2-carbonyl]cyclohexyl]methyl]-2-fluoro-benzamide], the concentration for half-maximal inhibition (IC50) was 6 nM in test [1] and 12 nM in test [2].

Take `Cc1cncc([C@@H]2CCON2C(=O)[C@H]2CC[C@H](Cc3ccc(F)c(C(N)=O)c3)CC2)n1` [compound 299, trans-2-fluoro-5-[[4-[(3S)-3-(6-methylpyrazin-2-yl)isoxazolidine-2-carbonyl]cyclohexyl]methyl]benzamide]: the IC50 in test [1] came to 19 nM; in test [2], 14 nM.

As for `NC(=O)c1ccc2c(ccn2C[C@H]2CC[C@H](C(=O)N3OCC[C@H]3c3ccccn3)CC2)c1` [compound 255, trans-1-[[4-[(3S)-3-(2-pyridyl)isoxazolidine-2-carbonyl]cyclohexyl]methyl]indole-5-carboxamide], the concentration for half-maximal inhibition (IC50) worked out at 521 nM in test [1] and 25 nM in test [2].

For the compound `N#Cc1cc(F)cc([C@@H]2CCON2C(=O)[C@H]2CC[C@H](Cc3ccc4ncnn4c3)CC2)c1` [compound 142, trans-3-fluoro-5-[(3S)-2-[4-([1,2,4]triazolo[1,5-a]pyridin-6-ylmethyl)cyclohexanecarbonyl]isoxazolidin-3-yl]benzonitrile], the IC50 in test [1] was determined as 4 nM; in test [2], 38 nM.

On to `Cc1ncc(C[C@H]2CC[C@H](C(=O)N3OCC[C@H]3c3cnccn3)CC2)cn1` [compound 346, trans-[4-[(2-methylpyrimidin-5-yl)methyl]cyclohexyl]-[(3S)-3-pyrazin-2-yl-1,2-oxazolidin-2-yl]methanone], for which the figures for the concentration for half-maximal inhibition (IC50) in test [1] and in test [2] were 70 nM and 83 nM, respectively.

As for `N#Cc1cc2ncn(C[C@H]3CC[C@H](C(=O)N4OCC[C@H]4c4cnccn4)CC3)c2cc1F` [compound 97, trans-6-fluoro-1-((4-((S)-3-(pyrazin-2-yl)isoxazolidine-2-carbonyl)cyclohexyl)methyl)-1H-benzo[d]imidazole-5-carbonitrile], the values for the half-inhibitory concentration (IC50) in test [1] and in test [2] were 214 nM and 78 nM, respectively.

For `Cn1cncc1C[C@H]1CC[C@H](C(=O)N2OCC[C@H]2c2cncc(C#N)c2)CC1` [compound 168, trans-5-[(3S)-2-[4-[(3-methylimidazol-4-yl)methyl]cyclohexanecarbonyl]isoxazolidin-3-yl]pyridine-3-carbonitrile], the IC50 is 653 nM in test [1] and 829 nM in test [2].

Take `Cc1cc(C[C@H]2CC[C@H](C(=O)N3OCC[C@H]3c3cnccn3)CC2)cn2c(C)nnc12` [compound 301, trans-[4-[(3,8-dimethyl-[1,2,4]triazolo[4,3-a]pyridin-6-yl)methyl]cyclohexyl]-[(3S)-3-pyrazin-2-yl-1,2-oxazolidin-2-yl]methanone]: the IC50 in test [1] turned out to be 34 nM; in test [2] it was 33 nM.

`Cc1ccc(CC23CCC(C(=O)N4OCC[C@H]4c4cc(F)cc(C#N)c4)(CC2)C3)cc1C(N)=O` [compound 270, 5-[[4-[(3S)-3-(3-cyano-5-fluoro-phenyl)isoxazolidine-2-carbonyl]norbornan-1-yl]methyl]-2-methyl-benzamide]: the IC50 in test [1] was determined as 50 nM; in test [2], 20 nM.

As to `N#Cc1cc(F)cc([C@@H]2CCON2C(=O)[C@H]2CC[C@H](Cn3ccc4ncc(O)cc43)CC2)c1` [compound 129, trans-3-fluoro-5-[(3S)-2-[4-[(6-hydroxypyrrolo[3,2-b]pyridin-1-yl)methyl]cyclohexanecarbonyl]isoxazolidin-3-yl]benzonitrile], the IC50 in test [1] amounted to 7 nM; in test [2] it was 29 nM.

For `N#Cc1cncc([C@@H]2CCON2C(=O)[C@H]2CC[C@H](Cc3ccc(C4(O)COC4)cc3)CC2)c1` [compound 183, trans-5-[(3S)-2-[4-[[4-(3-hydroxyoxetan-3-yl)phenyl]methyl]cyclohexanecarbonyl]isoxazolidin-3-yl]pyridine-3-carbonitrile], the concentration for half-maximal inhibition (IC50) in test [1] is 23 nM; in test [2], 45 nM.

For `Cc1ccc([C@@H]2CCON2C(=O)[C@H]2CC[C@H](Cc3cc(C)c4nc(C)nn4c3)CC2)cn1` [compound 325, trans-[4-[(2,8-dimethyl-[1,2,4]triazolo[1,5-a]pyridin-6-yl)methyl]cyclohexyl]-[(3S)-3-(6-methyl-3-pyridyl)isoxazolidin-2-yl]methanone], the 50% inhibitory concentration (IC50) in test [1] amounted to 108 nM; in test [2] it was 125 nM.
